Assay [1] relates to human liver cells. The experiment in a line: Quantitative real-time RT-PCR gene expression in human liver cells. The assay is classed as cell-based. The conditions noted are these: without PDX-1. The method, then:
Liver cells were cultured in Dulbecco's minimal essential medium (1 gr/L glucose) with or without growth factors as indicated separately (EGF 20 ng/ml, Cytolab Ltd.; Nicotinamide 10 mM, Sigma), and were infected by recombinant adenoviruses (500 moi) for 5 days. The recombinant adenoviruses used in this study: Ad-RIP-GFP-CMV-PDX-1, Ad-CMV-PDX-1, Ad-CMV-hIns^40, Ad-CMV-GFP (Clontech, BD Biosciences).
Alternatively, quantitative real-time RT-PCR, was performed using ABI Prism 7000 sequence Detection system (Applied Biosystems).
Amplification conditions included initiation at 50° C. for 2 minutes, denaturation at 95° C. for 10 minutes, followed by 40 cycles, each cycle included denaturation at 95° C. for 15 seconds and annealing at 60° C. for 1 minute, using the TaqMan PCR Master Mix (Applied Biosystems). Relative quantitative analysis was according to ABI prism 7000 SDS software, using the 2^(−ΔCt) equation. The mRNA levels were corrected for human β-actin mRNA.
A general note: In qPCR the cycle at which signal appears reflects the starting amount.

Assay [2] deals with adult human liver cells. The experiment in a line: Glucose challenge assay. The conditions noted are these: 0-25 mM, 2 hours. The assay is classed as cell-based. The method, then:
Adult liver cells were treated with Ad-CMV-PDX-1 and growth factors for 5 days. The cells were plated in 6-well plates at 10^5 cells per well.
For time course analysis the cells were preincubated for 2 hours in Krebs-Ringer buffer (KRB) containing 0.1% BSA, followed by incubation for the indicated period in media containing 2 mM or 25 mM glucose. At each time point media samples were analyzed for insulin (Ultra Sensitive Human Insulin RIA kit—Linco Research) and C-peptide secretion (Human C-Peptide RIA kit—Linco Research).
Glucose dose response; Cells were preincubated for 2 hours with KRB containing 0.1% BSA, washed and challenged thereafter with increasing concentrations of D-Glucose or 2-deoxy-Glucose (0-25 mM) for 2 hours. At the end of the incubation period at 25 mM glucose, the cells were washed with KRB and incubated for additional 2 hours in 2 mM glucose containing media.

As for “EGF: epidermal growth factor, soluble factor added to liver cell cultures (NSDSECPLSHDGYCLHDGVCMYIEALDKYACNCVVGYIGERCQYRDLKWWELR; UniProt P01133 971-1023, looked up)”, the “PDX-1 independent effect on pancreatic gene expression” value in assay [1] is “Neither nicotinamide nor EGF alone or their combination exhibited PDX-1 independent effect”.

As to `NC(=O)c1cccnc1` [nicotinamide], in assay [1], the “PDX-1 independent effect on pancreatic gene expression” value was “Neither nicotinamide nor EGF alone or their combination exhibited PDX-1 independent effect”.

As for `O=CC[C@@H](O)[C@H](O)[C@H](O)CO` [2-DOG, 2-deoxy-glucose], in assay [2], the “C-peptide secretion in transdifferentiated liver cells” value was “did not trigger C-peptide secretion”.

The values are drawn from patent US8778899B2, “Methods of inducing regulated pancreatic hormone production in non-pancreatic islet tissues” (priority 1999, dated 2014).
